# Assay results from patent publication US20240317683A1, “METHODS OF TREATING MOOD DISORDERS” (priority 2020, published 2024).
# Where a name gives a salt, the structure may show the parent alone. Read-outs that look alike come from different tables or passages of the source.
# What was measured:
# 5-HT1A = 5-HT1A (Homo sapiens (Human), UniProt P08908); test: FLIPR Ca2+ flux agonist assay, 5-HT1A; assay type: cell-based
# Method: (§1) A solution of 250 mM probenecid in 1 mL FLIPR assay buffer was prepared fresh. This was combined with a fluorescent dye (Fluo-4 Direct™) to make a final assay concentration of 2.5 mM. […] The fluorescent dye was then added to the assay plate along with assay buffer to a final volume of 40 μL. The cell plate was incubated for 50 min at 37° C. and 5% CO2 and placed into the FLIPR Tetra along with the compound plate. 10 μL of references and compounds were then transferred from the compound plate into the cell plate and the fluorescent signal was read.
# [1] = Stability in rat brain homogenate; assay type: in vitro ADME, Sprague Dawley rats; details: for half-life at 1 μM: male, Sprague Dawley; for half-life at 1 μM / % Compound Remaining (after 120 min): rat brain homogenate, 37° C., 1 μM
# Method: Rat Brain Homogenate Stability. Frozen rat brain homogenate (pooled from male Sprague Dawley rats, BioreclamationIVT, RATOOBRAINMZA) was thawed in a water bath at 37° C. immediately prior to use. Positive controls and test compounds (final concentration in incubation medium=1 μM for test compounds and 2 μM for controls, all with 2% DMSO) were incubated in duplicate for each time point (0, 10, 30, 60, and 120 min) in the rat brain homogenate at a total reaction volume of 100 μL at 37° C. At the end of each incubation period, reactions were immediately quenched with 400 μL of acetonitrile containing internal standard (200 ng/ml tolbutamine and 200 ng/ml labetalol) and mixed thoroughly. Plates were then sealed, shaken for 20 min, and centrifuged at 4,000 rpm and 4° C. for 20 min. Aliquots of 50 μL of each supernatant were diluted into 100 uL of water and the mixtures were then shaken again for 10 min.
# 5-HT2B = 5-HT2B (Homo sapiens (Human), UniProt P41595); test: FLIPR Ca2+ flux agonist assay, 5-HT2B; assay type: cell-based; details: for 5-HT2B % Act @ Max Dose: Ca2+ flux, HEK293
# Method: as §1
# [2] = Pharmacokinetics in mice, brain; assay type: in vivo, C57BL/6 mice; details: for half-life / Cmax / Tmax / AUC0-last: mouse brain; for F: mouse, based on brain AUC0-last
# Method: Animals. Male C57BL/6 mice, aged 8-12 weeks, were used in these studies. Four mice were housed in each cage. Temperature and humidity were maintained at 22±3° C. and 30-70%, respectively, and illumination was controlled to give a 12 h light and 12 h dark cycle. Temperature and humidity were recorded by an auto-controlled data logger system. All animals were provided laboratory rodent diet. Reverse osmosis water treated with ultraviolet light was provided ad libitum. Animals were randomly assigned to treatment groups.
# Drugs. Compounds 4 and 5 were prepared as described above. All other compounds were commercially obtained. Test compounds were used as the hydrogen fumarate (1 and 2) or hydrochloride (3, 4, and 5) salts and were dissolved in a vehicle consisting of normal saline. They were then administered intravenously (IV) via the tail vein, subcutaneously (SC), or orally (PO) via gavage at a dose of 1 or 10 mg/kg (calculated based on the free base) and at a volume of 5 ml/kg body weight.
# Sample Collection and Bioanalysis. Blood samples (approximately 60 μL) were collected under light isoflurane anesthesia (Surgivet®) from the retro orbital plexus at 0.08, 0.25, 0.5, 1, 2, 4, 8, and 24 h (4 animals per time point). Immediately after blood collection, plasma was harvested by centrifugation at 4,000 rpm for 10 min at 4° C. and samples were stored at −70±10° C. until bioanalysis. Following blood collection, animals were immediately sacrificed, the abdominal vena-cava was cut open, and the whole body was perfused from the heart using 10 mL of normal saline, and brain samples were collected from all animals. After isolation, brain samples were rinsed three times in ice-cold normal saline (for 5-10 seconds/rinse using ˜5-10 mL normal saline in disposable petri dish for each rinse) and dried on blotting paper. Brain samples were homogenized using ice-cold phosphate-buffered saline (pH 7.4). Total homogenate volume was three times the tissue weight. All homogenates were stored at −70±10° C. until bioanalysis. For bioanalysis, 25 μL aliquots of plasma/brain study samples or spiked plasma/brain calibration standards were added to individual pre-labeled micro-centrifuge tubes followed by 100 μL of an internal standard solution (glipizide, 500 ng/ml in acetonitrile) except for blanks, where 100 μL of acetonitrile was added. Samples were vortexed for 5 minutes and then centrifuged for 10 minutes at 4,000 rpm at 4° C. Following centrifugation, 100 μL of each clear supernatant was transferred to a 96 well plate and analyzed with a fit-for-purpose LC-MS/MS method, with authentic samples of each analyte used for calibration and identification.
# Data Analysis. Pharmacokinetic parameters were estimated using the non-compartmental analysis tool of Phoenix® WinNonlin software (Ver 8.0).
# [3] = Stability in mouse brain homogenate; assay type: in vitro ADME, CD-1 mice; details: for half-life at 1 μM: male, CD-1; for half-life at 1 μM / % Compound Remaining (after 120 min): mouse brain homogenate, 37° C., 1 μM
# Method: Mouse Brain Homogenate Stability. Frozen mouse brain homogenate (pooled from male CD-1 mice, BioreclamationIVT, MSE00BRAINMZA) was thawed in a water bath at 37° C. immediately prior to use. Positive controls and test compounds (final concentration in incubation medium=1 μM for test compounds and 2 μM for controls, all with 2% DMSO) were incubated in duplicate for each time point (0, 10, 30, 60, and 120 min) in the mouse brain homogenate at a total reaction volume of […] at 37° C. At the end of each incubation period, reactions were immediately quenched with 400 μL of acetonitrile containing internal standard (200 ng/mL tolbutamine and 200 ng/ml labetalol) and mixed thoroughly. Plates were then sealed, shaken for 20 min, and centrifuged at 4,000 rpm and 4° C. for 20 min. Aliquots of 50 μL of each supernatant were diluted into 100 μL of water and the mixtures were then shaken again for 10 min.
# [4] = Metabolic stability in human liver microsomes (HLM); assay type: in vitro ADME; details: both sexes, pooled human liver microsomes, pH 7.4, NADPH
# Method: HLM Stability. Pooled HLM from adult male and female donors (Corning 452117) were used. Microsomal incubations were carried out in multi-well plates. […] Control incubations were performed by replacing the NADPH-cofactor system with PBS. Test compounds (1 μM, final solvent concentration 1.0%) were incubated with microsomes at 37° C. with constant shaking. Six time points over 60 minutes were analyzed, with 60 μL aliquots of the reaction mixture being drawn at each time point.
# [5] = Metabolic stability in rat liver microsomes (RLM); assay type: in vitro ADME; details: both sexes, pooled rat liver microsomes, pH 7.4, NADPH
# Method: RLM Stability. Pooled RLM from adult male and female donors (Xenotech R1000) were used. Microsomal incubations were carried out in multi-well plates. […] Control incubations were performed by replacing the NADPH-cofactor system with PBS. Test compounds (1 μM, final solvent concentration 1.0%) were incubated with microsomes at 37° C. with constant shaking. Six time points over 60 minutes were analyzed, with 60 μL aliquots of the reaction mixture being drawn at each time point.
# [6] = male, C57BL/6, IV, 10 mg/kg, read-out: Cmax (C0 back-extrapolated to t = 0)
# [7] = male, C57BL/6, oral, 10 mg/kg, read-out: Cmax
# [8] = male, C57BL/6, SC, 10 mg/kg, read-out: Cmax
# 5-HT2B, sequence (P41595 whole entry, looked up, species assumed): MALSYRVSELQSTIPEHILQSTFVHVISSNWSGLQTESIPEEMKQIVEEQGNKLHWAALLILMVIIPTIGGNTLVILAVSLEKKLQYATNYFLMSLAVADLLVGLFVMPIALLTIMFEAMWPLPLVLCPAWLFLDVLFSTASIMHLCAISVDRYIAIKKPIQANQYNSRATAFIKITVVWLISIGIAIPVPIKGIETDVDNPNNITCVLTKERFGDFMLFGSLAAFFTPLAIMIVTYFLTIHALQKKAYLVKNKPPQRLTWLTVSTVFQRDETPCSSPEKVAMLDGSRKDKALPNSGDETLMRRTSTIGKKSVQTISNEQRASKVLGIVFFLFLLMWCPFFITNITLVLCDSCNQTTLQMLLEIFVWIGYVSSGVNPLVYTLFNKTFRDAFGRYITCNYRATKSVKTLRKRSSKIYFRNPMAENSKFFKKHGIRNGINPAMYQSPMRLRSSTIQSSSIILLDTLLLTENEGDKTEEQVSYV
SMILES,EC50 (5-HT1A) [µM],"5-HT1A % Act @ Max Dose (5-HT1A; Ca2+ flux, CHO cells) [%]",stability in rat brain homogenate (in words) [1],half-life at 1 μM [1] [min],% Compound Remaining (after 120 min) [1] [%],5-HT2B % Act @ Max Dose (5-HT2B) [%],"half-life ([2]; male, C57BL/6, IV, 10 mg/kg) [min]","Cmax [2, 6] [ng/g]","Tmax ([2]; male, C57BL/6, oral, 10 mg/kg) [min]","half-life ([2]; male, C57BL/6, oral, 10 mg/kg) [min]","Cmax [2, 7] [ng/g]","AUC0-last ([2]; IV, 10 mg/kg)","AUC0-last ([2]; oral, 10 mg/kg)",stability in mouse brain homogenate (in words) [3],half-life at 1 μM [3] [min],% Compound Remaining (after 120 min) [3] [%],half-life at 1 μM [4] [min],microsomal CLint at 1 μM [4] [µL/min/mg],half-life at 1 μM [5] [min],microsomal CLint at 1 μM [5] [µL/min/mg],also measured
"CCN(C)CCc1c[nH]c2ccccc12 [Compound 2, methylethyltryptamine]",59.5,73.6,high stability,> 289,76.5,22.5,92.4,6250,30,451,957,"3,923.27 h*ng/g","1,988.41 h*ng/g",intermediate stability,123,47.8,126,11.2,0.9,1560,"F ([2]; oral, 10 mg/kg): 51%"
"CCN(C)CCc1c[nH]c2ccc(F)cc12 [Compound 4, N-ethyl-2-(5-fluoro-1H-indol-3-yl)-N-methylethan-1-amine hydrochloride]",16.9,83.01,intermediate stability,183,62.0,0.79,56.4,7980,15,79.2,1400,"10,471.19 h*ng/g","3,835.86 h*ng/g",intermediate stability,54.3,20.7,47.9,28.9,6.1,229,"EC50 (5-HT2B): > 10 µM; Tmax ([2]; male, C57BL/6, SC, 1 mg/kg): 15 min; half-life ([2]; male, C57BL/6, SC, 1 mg/kg): 22.2 min; Cmax ([2]; male, C57BL/6, SC, 1 mg/kg, read-out: Cmax): 461 ng/g; Tmax ([2]; male, C57BL/6, SC, 10 mg/kg): 60 min; half-life ([2]; male, C57BL/6, SC, 10 mg/kg): 49.2 min; Cmax [2, 8]: 3510 ng/g; AUC0-last ([2]; SC, 1 mg/kg): 320.97 ng·h/g; AUC0-last ([2]; SC, 10 mg/kg): 6,672.16 h*ng/g; F ([2]; SC, 1 mg/kg): 31%; F ([2]; SC, 10 mg/kg): 64%; F ([2]; oral, 10 mg/kg): 37%"
CCN(C)CCc1c[nH]c2cccc(O)c12 [Compound 6],,72.96,intermediate stability,53,20.9,1.09,,,,,,,,intermediate stability,45.8,16.7,> 145,< 9.6,50.1,27.7,"EC50 (5-HT1A; Ca2+ flux, CHO cells, read-out: 5-HT1A EC50): 14.7 µM; Tmax ([2]; male, C57BL/6, SC, 10 mg/kg): 30 min; half-life ([2]; male, C57BL/6, SC, 10 mg/kg): 64.2 min; Cmax [2, 8]: 2920 ng/g; AUC0-last ([2]; SC, 10 mg/kg): 3,549.18 h*ng/g"
"CN(C)CCc1c[nH]c2cccc(O)c12 [Psilocin, psilocin, reference compound]",> 3.16,0.720,intermediate stability,115,46.1,1.44,,,,,,,,high stability,> 289,97.6,110,,75.6,18.3,"clearance ([2]; male, C57BL/6, mouse brain table, IV, 1 mg/kg): 24.1 mL/min/kg; half-life ([2]; male, C57BL/6, IV, 1 mg/kg): 182 min; Cmax ([2]; male, C57BL/6, IV, 1 mg/kg, read-out: Cmax (C0 back-extrapolated to t = 0)): 1200 ng/g; Tmax ([2]; male, C57BL/6, oral, 1 mg/kg): 10.2 min; half-life ([2]; male, C57BL/6, oral, 1 mg/kg): 175 min; Cmax ([2]; male, C57BL/6, oral, 1 mg/kg, read-out: Cmax): 211 ng/g; AUC0-last ([2]; IV, 1 mg/kg): 702 ng·h/g; AUC0-last ([2]; oral, 1 mg/kg): 399 ng·h/g; F ([2]; oral, 1 mg/kg): 57%"
